According to PubChem BioAssay AID330 (DTP/NCI, 2004):
Where “and” joins values, the source holds several entries; their conditions need not be identical. Equal values may be shown once. Toxic doses and inconclusive results are not listed. The calls were made as follows: active = survival T/C of 150% or more; inactive = T/C below 125% in these data.

Test system: P388 leukemia ip, CD2F1 mice, survival T/C
Test: NCI In Vivo Anticancer Drug Screen. Data for tumor model P388 Leukemia (intraperitoneal) in CD2F1 (CDF1) mice
Details: endpoint: median survival time, higher = longer survival
Method in brief: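 Mice carrying the transplanted tumor received test compound or vehicle. Survival was recorded in each group, and the value is the treated-group measurement divided by that of the vehicle-treated control group.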

[1] = dose: 50.0 mg/kg/injection, schedule: Q01DX005 (ip), vehicle: saline with Tween-80
[2] = dose: 100.0 mg/kg/injection, schedule: Q01DX005 (ip), vehicle: saline with Tween-80
[3] = dose: 200.0 mg/kg/injection, schedule: Q01DX005 (ip), vehicle: saline with Tween-80
[4] = dose: 50.0 mg/kg/injection, schedule: Q01DX005 (ip), vehicle: saline
[5] = dose: 100.0 mg/kg/injection, schedule: Q01DX005 (ip), vehicle: saline
[6] = dose: 200.0 mg/kg/injection, schedule: Q01DX005 (ip), vehicle: saline
[7] = dose: 50.0 mg/kg/injection, schedule: Q01DX005 (ip), vehicle: Klucel (hydroxypropylcellulose) (HPC)
[8] = dose: 100.0 mg/kg/injection, schedule: Q01DX005 (ip), vehicle: Klucel (hydroxypropylcellulose) (HPC)
[9] = dose: 200.0 mg/kg/injection, schedule: Q01DX005 (ip), vehicle: Klucel (hydroxypropylcellulose) (HPC)
[10] = dose: 25.0 mg/kg/injection, schedule: Q01DX009 (ip), vehicle: saline with Tween-80
[11] = dose: 50.0 mg/kg/injection, schedule: Q01DX009 (ip), vehicle: saline with Tween-80
[12] = dose: 100.0 mg/kg/injection, schedule: Q01DX009 (ip), vehicle: saline with Tween-80
[13] = dose: 200.0 mg/kg/injection, schedule: Q01DX009 (ip), vehicle: saline with Tween-80
[14] = dose: 100.0 mg/kg/injection, schedule: Q01DX001 (ip), vehicle: Klucel (hydroxypropylcellulose) (HPC)
[15] = dose: 200.0 mg/kg/injection, schedule: Q01DX001 (ip), vehicle: Klucel (hydroxypropylcellulose) (HPC)
[16] = dose: 400.0 mg/kg/injection, schedule: Q01DX001 (ip), vehicle: Klucel (hydroxypropylcellulose) (HPC)

Measured: T/C

O=C(NCCCCCCCCNC(=O)C(Cl)Cl)C(Cl)Cl
inactive: [1] 106 % of control | [2] 99 % of control | [3] 92 % of control

C=C[C@H](c1ccccc1O)c1cc(OC)c(OC)cc1OC
inactive: dose: 31.75 mg/kg/injection, schedule: Q01DX005 (ip), vehicle: Klucel (hydroxypropylcellulose) (HPC) 104 % of control | dose: 63.5 mg/kg/injection, schedule: Q01DX005 (ip), vehicle: Klucel (hydroxypropylcellulose) (HPC) 103 % of control | dose: 127.0 mg/kg/injection, schedule: Q01DX005 (ip), vehicle: Klucel (hydroxypropylcellulose) (HPC) 106 % of control | dose: 254.0 mg/kg/injection, schedule: Q01DX005 (ip), vehicle: Klucel (hydroxypropylcellulose) (HPC) 102 % of control

CC(C)NCC(O)c1ccc(NS(C)(=O)=O)cc1 (stereo not drawn)
inactive: [4] 108 % of control | [5] 100 % of control | [6] 104 % of control

CC(=O)N1CCN(C(C)=O)C2C1N(C(C)=O)CCN2C(C)=O (stereo not drawn)
inactive: [4] 117 % of control | dose: 60.0 mg/kg/injection, schedule: Q01DX005 (ip), vehicle: saline 105 % of control | [5] 105 % of control | dose: 120.0 mg/kg/injection, schedule: Q01DX005 (ip), vehicle: saline 107 % of control | [6] 115 % of control | dose: 240.0 mg/kg/injection, schedule: Q01DX005 (ip), vehicle: saline 100 % of control

CCOC(=O)Cc1oc2c(C(C)=O)c(O)c(C)c(O)c2c1C
inactive: [7] 88 % of control | [8] 89 % of control | [9] 87 % of control

O=C(N/N=C/c1cc(Br)cc(Br)c1[O-])c1ccccc1.O=C(N/N=C/c1cc(Br)cc(Br)c1[O-])c1ccccc1.[Ni+2]
inactive: dose: 100.0 mg/kg/injection, schedule: Q01DX001 (ip), vehicle: saline with Tween-80 90 % of control | dose: 200.0 mg/kg/injection, schedule: Q01DX001 (ip), vehicle: saline with Tween-80 90 % of control | dose: 400.0 mg/kg/injection, schedule: Q01DX001 (ip), vehicle: saline with Tween-80 94 % of control

CCCCNC(=O)C(N)CON (stereo not drawn)
inactive: [4] 106 % of control | [5] 113 % of control | [6] 106 % of control

Cc1ccc(S(=O)(=O)NC(CN(CC(=O)O)N=O)C(=O)O)cc1 (stereo not drawn)
inactive: [7] 97 % of control | [8] 96 % of control | [9] 98 % of control

O=C1c2ccccc2C(=O)N1CC[P+](Cc1ccccc1)(Cc1ccccc1)Cc1ccccc1
inactive: dose: 0.78 mg/kg/injection, schedule: Q01DX009 (ip), vehicle: other 105 % of control | dose: 1.56 mg/kg/injection, schedule: Q01DX009 (ip), vehicle: other 97 % of control | dose: 3.13 mg/kg/injection, schedule: Q01DX009 (ip), vehicle: other 97 % of control | dose: 6.25 mg/kg/injection, schedule: Q01DX009 (ip), vehicle: other 106 % of control | dose: 12.5 mg/kg/injection, schedule: Q01DX009 (ip), vehicle: other 99 % of control and 90 % of control | dose: 25.0 mg/kg/injection, schedule: Q01DX009 (ip), vehicle: other 112 % of control and 91 % of control | dose: 50.0 mg/kg/injection, schedule: Q01DX009 (ip), vehicle: other 105 % of control | dose: 100.0 mg/kg/injection, schedule: Q01DX009 (ip), vehicle: other 89 % of control

CCOC(=O)c1ccc(NC(C)=O)cc1
inactive: dose: 100.0 mg/kg/injection, schedule: Q01DX009 (ip), vehicle: Klucel (hydroxypropylcellulose) (HPC) 100 % of control | dose: 200.0 mg/kg/injection, schedule: Q01DX009 (ip), vehicle: Klucel (hydroxypropylcellulose) (HPC) 107 % of control | dose: 400.0 mg/kg/injection, schedule: Q01DX009 (ip), vehicle: Klucel (hydroxypropylcellulose) (HPC) 112 % of control

CC(C)(C)C1C=Nn2c(=O)n(-c3ccccc3)c(=O)n21 (stereo not drawn)
inactive: dose: 25.0 mg/kg/injection, schedule: Q04DX003 (ip), vehicle: other 91 % of control | dose: 100.0 mg/kg/injection, schedule: Q04DX003 (ip), vehicle: other 94 % of control | dose: 200.0 mg/kg/injection, schedule: Q04DX003 (ip), vehicle: other 98 % of control | dose: 400.0 mg/kg/injection, schedule: Q04DX003 (ip), vehicle: other 100 % of control

CC(c1ccccc1)C1NC(=O)NC1=O (stereo not drawn)
inactive: [10] 117 % of control | [11] 106 % of control | [12] 106 % of control

Nc1ccc2c(n1)NCC/C2=N\Nc1ccc(Br)cc1
inactive: [11] 103 % of control | [12] 104 % of control | [13] 106 % of control

CN(Cc1ccc(Nc2ccccc2)cc1)C1CCCCC1
inactive: dose: 50.0 mg/kg/injection, schedule: Q01DX009 (ip), vehicle: saline + Tween-80 + alcohol 103 % of control and 106 % of control | dose: 100.0 mg/kg/injection, schedule: Q01DX009 (ip), vehicle: saline + Tween-80 + alcohol 110 % of control and 111 % of control | dose: 200.0 mg/kg/injection, schedule: Q01DX009 (ip), vehicle: saline + Tween-80 + alcohol 109 % of control and 112 % of control | dose: 400.0 mg/kg/injection, schedule: Q01DX009 (ip), vehicle: saline + Tween-80 + alcohol 114 % of control

O=P1(C(Cl)(Cl)Cl)NNP(=O)(C(Cl)(Cl)Cl)NN1 (stereo not drawn)
inactive: dose: 60.0 mg/kg/injection, schedule: Q01DX005 (ip), vehicle: Klucel (hydroxypropylcellulose) (HPC) 104 % of control | dose: 120.0 mg/kg/injection, schedule: Q01DX005 (ip), vehicle: Klucel (hydroxypropylcellulose) (HPC) 101 % of control | dose: 240.0 mg/kg/injection, schedule: Q01DX005 (ip), vehicle: Klucel (hydroxypropylcellulose) (HPC) 107 % of control

O=C1c2ccccc2C(=O)N1c1ccccc1
inactive: [14] 99 % of control | [15] 100 % of control | [16] 100 % of control

[BH]n1cccn1.[CH3][Sn]([CH3])[N]=C=S
inactive: dose: 100.0 mg/kg/injection, schedule: Q04DX003 (ip), vehicle: saline 117 % of control | dose: 200.0 mg/kg/injection, schedule: Q04DX003 (ip), vehicle: saline 117 % of control

O=C(C1CO1)C(Cl)(Cl)Cl (stereo not drawn)
inactive: dose: 3.12 mg/kg/injection, schedule: Q01DX001 (ip), vehicle: saline 107 % of control | dose: 6.25 mg/kg/injection, schedule: Q01DX001 (ip), vehicle: saline 107 % of control | dose: 12.5 mg/kg/injection, schedule: Q01DX001 (ip), vehicle: saline 116 % of control | dose: 25.0 mg/kg/injection, schedule: Q01DX001 (ip), vehicle: saline 120 % of control and 122 % of control | dose: 50.0 mg/kg/injection, schedule: Q01DX001 (ip), vehicle: saline 113 % of control | dose: 100.0 mg/kg/injection, schedule: Q01DX001 (ip), vehicle: saline 111 % of control

CC(C)N(C(=O)c1ncccc1C(=O)c1ccccn1)C(C)C
inactive: [1] 105 % of control | [2] 94 % of control | [3] 94 % of control

COC1C(/C=C/c2cnc(N)s2)OC2OC(C)(C)OC21 (stereo not drawn)
inactive: dose: 100.0 mg/kg/injection, schedule: Q04DX002 (ip), vehicle: saline with Tween-80 102 % of control | dose: 200.0 mg/kg/injection, schedule: Q04DX002 (ip), vehicle: saline with Tween-80 102 % of control | dose: 400.0 mg/kg/injection, schedule: Q04DX002 (ip), vehicle: saline with Tween-80 115 % of control

CCCNC(=O)CCC(NS(=O)(=O)c1ccc(C)cc1)C(=O)O (stereo not drawn)
inactive: [7] 100 % of control | [8] 100 % of control | [9] 98 % of control

NC(=S)c1ccc(C=Nc2ccc(C(N)=S)cc2)cc1
inactive: [14] 87 % of control | [15] 91 % of control | [16] 88 % of control

Cc1nnc(-n2nc(-c3ccc(Cl)cc3)cc2N)[nH]c1=O
inactive: [1] 98 % of control | [2] 106 % of control | [3] 93 % of control

Cn1cccc1[N+](=O)[O-]
inactive: dose: 12.5 mg/kg/injection, schedule: Q01DX009 (ip), vehicle: saline with Tween-80 100 % of control | [10] 101 % of control | [11] 100 % of control and 104 % of control | [12] 101 % of control | [13] 108 % of control

CCC1S(=O)(=O)OCCOS1(=O)=O
inactive: dose: 7.5 mg/kg/injection, schedule: Q01DX005 (ip), vehicle: Klucel (hydroxypropylcellulose) (HPC) 106 % of control | dose: 15.0 mg/kg/injection, schedule: Q01DX005 (ip), vehicle: Klucel (hydroxypropylcellulose) (HPC) 106 % of control and 107 % of control and 116 % of control | dose: 30.0 mg/kg/injection, schedule: Q01DX005 (ip), vehicle: Klucel (hydroxypropylcellulose) (HPC) 109 % of control and 112 % of control and 120 % of control

Cc1nc2ccccc2c(=O)n1/N=C/c1cccc([N+](=O)[O-])c1
inactive: [1] 104 % of control | [2] 99 % of control | [3] 98 % of control
